# According to patent US20220009920A1 (GB005, Inc., priority 2020, published 2022):
# Experiments:
# BTK = target: T1, BTK (Homo sapiens, UniProt Q06187); assay: Assay to determine activity against BTK; type: biochemical; settings: 1 mM ATP, 2 nM BTK, 90 minutes at room temperature
# T1 construct: purchased Cama
# Method: Solutions of compounds (test or control) in DMSO were prepared at the desired concentrations, and serially diluted to 11 concentrations by 3-fold dilution in 384pp-plate using TECAN EVO200. 20 nL of stock were transferred to 384 plate using Echo550. DMSO was used as vehicle control.
# (BTK was obtained from Cama; FLPeptide2 was obtained from PerkinElmer and Ibrutinib was obtained from Selleck.) 5 μL of ATP solution were added to each well, followed by addition of 15 μL of BTK solution to initiate the reaction. (Note the final volume of each well was 20 μL containing MgCl2 (10 mM), Brij-35 (0.01%), DTT (2 mM), BSA (0.05%), EGTA (1 mM), HEPE (pH7.5) (50 mM), FLPeptide (1.5 uM), ATP (1 mM) and BTK (2 nM).
# The plates were incubated at room temperature for 90 minutes and then stopping buffer added (75 μL, containing 0.5 M EDTA) to terminate the reaction. Samples from each well were analyzed using EZ reader. The % remaining activity was calculated using read conversion ratio (CR) according to the equation: […]
# XLFit (equation 201) was used to calculate IC50's by floating both bottom and top.
# BTK in RAMOS B cells = assay: Assay to determine BTK activity in RAMOS B cells (anti-IgM, FLIPR Calcium 6); type: cell-based; settings: anti-IgM EC80, calcium readout
# Method: On the day before assay, Ramos B cells were plated in plating medium (RPMI1640 medium containing 1% FBS and 1× pencillin-streptomycin). On the day of the assay, 2× dye solution was prepared following the manual of the FLIRP Calcium 6 Assay Kit: Dilute the dye with assay buffer (20 mM HEPES in IX HBSS, pH7.4); Add probenecid to the final concentration of 5 mM; vortex vigorously for 1-2 minutes. Cells were collected by centrifuging, and the pellet was re-suspended in plating medium. After counting, cells were re-suspended at a density of 3×10^6/ml in plating medium. Equal volume of 2× dye solution was added to the cell suspension. Cells were then plated at 20 μl/well into a 384-well poly-D-lysine coated plate. Plate was centrifuged at 1000 rpm for 3 minutes and then incubated at 37° C. for 2 hours followed by an additional 15-minute incubation at 25° C. Compounds were prepared at 3× concentration in dilution buffer (20 mM HEPES and 0.1% BSA in 1×HBSS, pH 7.4). Serially diluted compound was transferred from source plate to a 384-well compound plate by using an Echo 550 (Labcyte). 20 μl/well compound dilution buffer was added to the compound plate and mixed on plate shaker for 2 mins. 4× EC80 of Anti-IgM (Jackson ImmunoResearch) was prepared in dilution buffer and 20 μl/well was added to a new 384-well compound plate. After 60 mins of incubation at 25° C. in the dark; cell plate, compound plate containing 4×EC80 of anti-IgM and FLIPR tips were placed into FLIPR (Molecular Devices). 10 ul/well of 4×EC80 anti-IgM was transferred to the cell plate by FLIPR. Plates were read for 160 sec with 1 sec interval.
# T1 sequence (Q06187 whole entry): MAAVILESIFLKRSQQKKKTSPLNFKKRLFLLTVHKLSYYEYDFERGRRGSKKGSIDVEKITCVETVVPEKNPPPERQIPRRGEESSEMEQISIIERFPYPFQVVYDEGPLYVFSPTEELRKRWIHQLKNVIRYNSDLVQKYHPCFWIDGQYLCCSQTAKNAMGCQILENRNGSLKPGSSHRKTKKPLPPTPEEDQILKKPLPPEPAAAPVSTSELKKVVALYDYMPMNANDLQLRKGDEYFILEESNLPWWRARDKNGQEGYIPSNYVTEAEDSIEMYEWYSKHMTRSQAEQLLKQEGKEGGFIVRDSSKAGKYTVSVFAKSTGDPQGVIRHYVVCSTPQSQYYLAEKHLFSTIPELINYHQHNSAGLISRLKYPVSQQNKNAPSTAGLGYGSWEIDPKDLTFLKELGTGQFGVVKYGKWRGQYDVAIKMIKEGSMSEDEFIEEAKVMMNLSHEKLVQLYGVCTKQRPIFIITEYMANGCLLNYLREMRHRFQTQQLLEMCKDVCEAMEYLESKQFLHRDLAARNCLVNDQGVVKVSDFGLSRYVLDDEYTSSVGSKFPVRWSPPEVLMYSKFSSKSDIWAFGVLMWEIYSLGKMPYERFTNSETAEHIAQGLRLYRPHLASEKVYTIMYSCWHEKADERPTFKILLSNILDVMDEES
IC50 (BTK) [nM],"IC50 (BTK in RAMOS B cells; Homo sapiens, Ramos) [nM]",IC50 (BTK in RAMOS B cells) [nM],Compound
≥ 100,≥ 100,–,"C=CC(=O)N1CCc2c(-c3c(F)cc(C(N)=O)c4[nH]c5c(c34)CC3(CC5)CC3)cccc2[C@@H]1C (atropisomer, axis not shown) [Compound 7-20, 5-((S)-2-acryloyl-1-methyl-1,2,3,4-tetrahydroisoquinolin-5-yl)-6-fluoro-1,2,4,9-tetrahydrospiro[carbazole-3,1′-cyclopropane]-8-carboxamide]"
< 10,10 to 100,–,"C=CC(=O)N1CCc2c(-c3c(F)cc(C(N)=O)c4[nH]c5c(c34)CC3(CC5)CC3)cccc2[C@@H]1C (atropisomer, axis not shown) [Compound 7-21, (R)-5-((S)-2-acryloyl-1-methyl-1,2,3,4-tetrahydroisoquinolin-5-yl)-6-fluoro-1,2,4,9-tetrahydrospiro[carbazole-3,1′-cyclopropane]-8-carboxamide]"
10 to 100,–,≥ 100,"C=CC(=O)N1CCc2c(cccc2-c2c(C)nc(C(N)=O)c3[nH]c4c(c23)CCCC4)C1 (single isomer, unassigned) [Compound 2-5, 4-(2-acryloyl-1,2,3,4-tetrahydroisoquinolin-5-yl)-3-methyl-6,7,8,9-tetrahydro-5H-pyrido[3,4-b]indole-1-carboxamide]"
< 10,–,10 to 100,"C=CC(=O)N1CCc2c(cccc2-c2c(C)nc(C(N)=O)c3[nH]c4c(c23)CCCC4)C1 (single isomer, unassigned) [Compound 2-6, 4-(2-acryloyl-1,2,3,4-tetrahydroisoquinolin-5-yl)-3-methyl-6,7,8,9-tetrahydro-5H-pyrido[3,4-b]indole-1-carboxamide]"
≥ 100,–,≥ 100,"C=CC(=O)N1CCc2c(cccc2-c2c(C)nc(C(N)=O)c3[nH]c4c(c23)CCCC4)C1 (single isomer, unassigned) [Compound 2-7, 4-(2-acryloyl-1,2,3,4-tetrahydroisoquinolin-5-yl)-3-methyl-6,7,8,9-tetrahydro-5H-pyrido[3,4-b]indole-1-carboxamide]"
10 to 100,–,10 to 100,"C=CC(=O)N1CCc2c(cccc2-c2c(F)cc(C(N)=O)c3[nH]c4c(c23)CCCCC4)C1 (single isomer, unassigned) [Compound 5-1, 2-fluoro-1-[2-(prop-2-enoyl)-3,4-dihydro-1H-isoquinolin-5-yl]-5H,6H,7H,8H,9H,10H-cyclohepta[b]indole-4-carboxamide]"
≥ 100,–,≥ 100,"C=CC(=O)N1CCc2c(cccc2-c2c(F)cc(C(N)=O)c3[nH]c4c(c23)CCCCC4)C1 (single isomer, unassigned) [Compound 5-2, 2-fluoro-1-[2-(prop-2-enoyl)-3,4-dihydro-1H-isoquinolin-5-yl]-5H,6H,7H,8H,9H,10H-cyclohepta[b]indole-4-carboxamide]"
< 10,≥ 100,–,"C=CC(=O)N1CCc2c(cccc2-c2c(F)cc(C(N)=O)c3[nH]c4c(c23)C[S+]([O-])CC4)C1 (single isomer, unassigned) [Compound 9-1, 9-(2-acryloyl-1,2,3,4-tetrahydroisoquinolin-5-yl)-8-fluoro-1,3,4,5-tetrahydrothiopyrano[4,3-b]indole-6-carboxamide 2-oxide]"
10 to 100,–,≥ 100,"C=CC(=O)N1CCc2c(cccc2-c2c(F)cc(C(N)=O)c3[nH]c4c(c23)C[S+]([O-])CC4)C1 (single isomer, unassigned) [Compound 9-2, 9-(2-acryloyl-1,2,3,4-tetrahydroisoquinolin-5-yl)-8-fluoro-1,3,4,5-tetrahydrothiopyrano[4,3-b]indole-6-carboxamide 2-oxide]"
< 10,–,10 to 100,"C=CC(=O)N1CCc2c(cccc2-c2c(F)cc(C(N)=O)c3[nH]c4c(c23)CS(=O)(=O)CC4)C1 (single isomer, unassigned) [Compound 9-3, 9-(2-acryloyl-1,2,3,4-tetrahydroisoquinolin-5-yl)-8-fluoro-1,3,4,5-tetrahydrothiopyrano[4,3-b]indole-6-carboxamide 2,2-dioxide]"
≥ 100,–,≥ 100,"C=CC(=O)N1CCc2c(cccc2-c2c(F)cc(C(N)=O)c3[nH]c4c(c23)CS(=O)(=O)CC4)C1 (single isomer, unassigned) [Compound 9-4, 9-(2-acryloyl-1,2,3,4-tetrahydroisoquinolin-5-yl)-8-fluoro-1,3,4,5-tetrahydrothiopyrano[4,3-b]indole-6-carboxamide 2,2-dioxide]"
< 10,–,< 10,"CC#CC(=O)N[C@H]1CCCC(c2c(F)cc(C(N)=O)c3[nH]c4c(c23)CCC4)C1 (single isomer, unassigned) [Compound 10-5]"
10 to 100,–,≥ 100,"CC#CC(=O)N[C@H]1CCCC(c2c(F)cc(C(N)=O)c3[nH]c4c(c23)CCC4)C1 (single isomer, unassigned) [Compound 10-6]"
10 to 100,10 to 100,–,"C=CC(=O)N1CCCC(c2cnc(C(N)=O)c3[nH]c4c(c23)CCCC4)C1 (centres unmarked) [Compound 1-1, 4-(1-acryloylpiperidin-3-yl)-6,7,8,9-tetrahydro-5H-pyrido[3,4-b]indole-1-carboxamide]"
10 to 100,10 to 100,–,"C=CC(=O)N1CCc2c(cccc2-c2cnc(C(N)=O)c3[nH]c4c(c23)CCCC4)C1 [Compound 2-1, 4-(2-acryloyl-1,2,3,4-tetrahydroisoquinolin-5-yl)-6,7,8,9-tetrahydro-5H-pyrido[3,4-b]indole-1-carboxamide]"
10 to 100,10 to 100,–,C=CC(=O)N1CCC=C(c2cnc(C(N)=O)c3[nH]c4c(c23)CCCC4)C1 [Compound 2-2]
≥ 100,≥ 100,–,"C=CC(=O)N1CCC[C@H](c2cnc(C(N)=O)c3[nH]c4c(c23)CCCC4)C1 [Compound 2-3, (R)-4-(1-acryloylpiperidin-3-yl)-6,7,8,9-tetrahydro-5H-pyrido[3,4-b]indole-1-carboxamide]"
10 to 100,≥ 100,–,"CC#CC(=O)N1CCC=C(c2cnc(C(N)=O)c3[nH]c4c(c23)CCCC4)C1 [Compound 2-8, 4-(1-(but-2-ynoyl)-1,2,5,6-tetrahydropyridin-3-yl)-6,7,8,9-tetrahydro-5H-pyrido[3,4-b]indole-1-carboxamide]"
10 to 100,10 to 100,–,"C=CC(=O)N1CCC=C(c2cnc(C(N)=O)c3[nH]c4c(c23)CC(F)(F)CC4)C1 [Compound 2-9, 4-(1-acryloyl-1,2,5,6-tetrahydropyridin-3-yl)-6,6-difluoro-6,7,8,9-tetrahydro-5H-pyrido[3,4-b]indole-1-carboxamide]"
< 10,< 10,–,"C=CC(=O)N1CCc2c(cccc2-c2ncc(C(N)=O)c3[nH]c4c(c23)CCCC4)C1 [Compound 3-1, 1-(2-acryloyl-1,2,3,4-tetrahydroisoquinolin-5-yl)-6,7,8,9-tetrahydro-5H-pyrido[4,3-b]indole-4-carboxamide]"

Compound,IC50 (BTK) [nM],"IC50 (BTK in RAMOS B cells; Homo sapiens, Ramos) [nM]",IC50 (BTK in RAMOS B cells) [nM]
"C=CC(=O)N1CCCC(c2c(F)cc(C(N)=O)c3[nH]c4c(c23)CCCCC4)C1 (racemic) [Compound 5-5, 1-(1-acryloylpiperidin-3-yl)-2-fluoro-5,6,7,8,9,10-hexahydrocyclohepta[b]indole-4-carboxamide]",10 to 100,10 to 100,–
"C=CC(=O)N1CCCC(c2c(F)cc(C(N)=O)c3[nH]c4c(c23)CCCCC4)C1 (single isomer, unassigned) [Compound 5-7]",≥ 100,–,≥ 100
